# Data from ChEMBL document CHEMBL3886773, “Immune system modulators” (2016).
# Target: T1, Toll-like receptor 9 (Homo sapiens, UniProt Q9NR96)
# T1 sequence (Q9NR96 whole entry): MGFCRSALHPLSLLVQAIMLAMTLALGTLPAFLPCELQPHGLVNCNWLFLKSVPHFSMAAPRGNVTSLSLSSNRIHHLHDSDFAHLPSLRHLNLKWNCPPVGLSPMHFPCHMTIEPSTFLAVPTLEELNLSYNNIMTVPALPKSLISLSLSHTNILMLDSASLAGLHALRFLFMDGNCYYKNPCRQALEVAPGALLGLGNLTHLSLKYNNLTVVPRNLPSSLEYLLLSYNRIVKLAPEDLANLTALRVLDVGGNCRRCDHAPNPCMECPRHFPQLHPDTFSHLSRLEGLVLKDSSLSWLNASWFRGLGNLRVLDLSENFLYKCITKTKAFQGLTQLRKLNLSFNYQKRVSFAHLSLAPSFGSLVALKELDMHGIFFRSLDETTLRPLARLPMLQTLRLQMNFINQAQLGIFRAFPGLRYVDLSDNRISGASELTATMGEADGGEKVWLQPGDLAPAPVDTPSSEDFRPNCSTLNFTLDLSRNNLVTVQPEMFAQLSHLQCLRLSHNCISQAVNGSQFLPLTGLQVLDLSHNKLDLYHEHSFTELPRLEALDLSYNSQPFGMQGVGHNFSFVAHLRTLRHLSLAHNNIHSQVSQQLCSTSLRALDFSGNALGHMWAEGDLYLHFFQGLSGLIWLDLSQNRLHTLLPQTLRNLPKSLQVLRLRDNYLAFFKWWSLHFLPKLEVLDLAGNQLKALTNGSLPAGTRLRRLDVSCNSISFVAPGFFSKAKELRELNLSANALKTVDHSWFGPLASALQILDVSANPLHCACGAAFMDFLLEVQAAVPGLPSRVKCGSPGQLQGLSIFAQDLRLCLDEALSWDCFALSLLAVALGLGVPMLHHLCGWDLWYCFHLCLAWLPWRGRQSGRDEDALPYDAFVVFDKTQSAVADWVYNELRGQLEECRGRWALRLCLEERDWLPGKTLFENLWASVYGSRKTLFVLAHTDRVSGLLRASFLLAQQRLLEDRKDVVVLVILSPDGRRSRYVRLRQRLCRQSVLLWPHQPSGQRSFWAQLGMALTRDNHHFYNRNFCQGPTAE
# Assay: Antagonism Assay: Day 1: A cell suspension of HEK-Blue™-hTLR9 cells at ~450,000 cells per ml in test medium which contained 5% (v/v) heat inactivated FBS was prepared. 180 μl of cell suspension (Ë¿80,000 cells) was added per well of a flat-bottom 96-well plate and place in an incubator at 37° C. for overnight. Day 2: Test compounds were serially diluted in test medium, generally starting at 10 μM, and diluting by 3 fold in a 96 well master plate. 20 μl of diluted test compound was transferred using a 12 channel multi-channel pipet to the cell plate and incubated at 37° C. for 1 hour. Then 20 μl of an hTLR9 agonist (such as ODN 2006, 1 μM) was added to each well and the plate incubated at 37° C. overnight. Day 3: Invivogen's QUANTI-Blue™ was prepared following the manufacturer's instructions. […] of resuspended QUANTI-Blue™ was added per well of a flat bottom 96-well plate. 20 μl per well of induced HEK-Blue™-hTLR9 cells supernatant was then added to the plate and the plate was incubated at 37° C. for 1-3 h. SEAP levels were determined using a spectrophotometer at 620 nm.
row,SMILES,IC50 [nM]
1,CN1CCN(c2cnc3c(NCCSC(=N)N)nc(-c4ccccc4)nc3n2)CC1,> 10000
2,N#Cc1ccc(-c2nc3c(NCCN4CCOCC4)nc(-c4ccccc4)nc3n(CCN3CCOCC3)c2=O)cc1,487
3,CN1CCN(c2ccc(-c3nc(NCCN4CCOCC4)c4nccnc4n3)cc2)CC1,285
4,CN1CCN(c2nc3nc(-c4ccc(C(C)(C)C)cc4)nc(NCCN4CCOCC4)c3nc2NCCN2CCOCC2)CC1,273
5,O=c1c(C(F)(F)F)nc2c(NCCN3CCOCC3)nc(-c3ccccc3)nc2n1CCN1CCOCC1,3820
6,CN1CCN(c2nc3nc(-c4ccccc4)nc(NCCN4CCOCC4)c3nc2NCCN2CCOCC2)CC1,317
7,O=c1c(-c2ccccc2)nc2c(NCCN3CCOCC3)nc(-c3ccccc3)nc2n1CCN1CCOCC1,137
8,Cc1nc2c(NCCN3CCOCC3)nc(-c3ccccc3)nc2n(CCN2CCOCC2)c1=O,2480
9,CN1CCN(CCNc2nc(-c3ccccc3)nc3c2nc(-c2ccccc2)c(=O)n3CCN2CCN(C)CC2)CC1,124
10,O=c1c(-c2cc(F)cc(F)c2)nc2c(NCCN3CCOCC3)nc(-c3ccccc3)nc2n1CCN1CCOCC1,901

# Continued, values first:
row,IC50 [nM],SMILES
1,113,CN1CCN(CCNc2nc(-c3ccccc3)nc3nc(N4CCN(C)CC4)cnc23)CC1
2,2180,CN1CCN(c2cnc3c(NCCc4ccccn4)nc(-c4ccccc4)nc3n2)CC1
3,62,CN1CCN(c2nc3nc(-c4ccccc4)nc(NCCN4CCOCC4)c3nc2Cl)CC1
4,2490,Cc1cnc(CNc2nc(-c3ccccc3)nc3nc(N4CCN(C)CC4)cnc23)cn1
5,991,CN1CCN(c2cnc3c(NCCc4ccncc4)nc(-c4ccccc4)nc3n2)CC1
6,198,CN1CCN(c2cnc3c(NCCCNc4nc(N)nc(N)n4)nc(-c4ccccc4)nc3n2)CC1
7,112,CN(C)CCN(C)c1nc(-c2ccccc2)nc2nc(N3CCN(C)CC3)cnc12
8,2950,CN1CCN(c2cnc3c(NCCCn4cncn4)nc(-c4ccccc4)nc3n2)CC1
